Counter-ions that a name gives are not always drawn.
What was measured:
[1] = molecular target: T1, thromboxane A2 (TxA2) receptor (Cavia porcellus, UniProt A0A286Y4I8); test: TxA2 antagonist action by binding assay; details: washed guinea pig platelets, 1 nM [3H]-SQ29,548, 45 minutes at 25° C.
T1 construct: to obtain washed platelets; from tissue; host or cells: washed platelets of male Hartley guinea pigs
T1 sequence (A0A286Y4I8 1-347): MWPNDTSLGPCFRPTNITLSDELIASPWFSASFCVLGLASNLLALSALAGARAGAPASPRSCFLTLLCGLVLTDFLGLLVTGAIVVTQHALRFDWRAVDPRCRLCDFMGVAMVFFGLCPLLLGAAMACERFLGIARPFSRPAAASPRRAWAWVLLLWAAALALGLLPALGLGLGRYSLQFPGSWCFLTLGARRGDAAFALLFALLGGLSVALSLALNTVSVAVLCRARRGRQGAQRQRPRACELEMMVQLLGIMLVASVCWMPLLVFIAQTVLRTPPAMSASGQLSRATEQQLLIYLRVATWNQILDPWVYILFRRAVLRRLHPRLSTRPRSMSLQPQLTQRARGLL
Method: (1) TxA2 antagonist action by binding assay Guinea pigs (Hartley; male; body weight=approximately 500 g) were anesthetized with ether, and the blood was collected into sodium citrate (final concentration=0.38%). The preparation of platelets was carried out at room temperature. The platelet rich plasma was obtained by centrifugation at 980 rpm for 10 minutes. One tenth (1/10) amount of 77 mM-EDTA-Na (pH 7.4) was added to the platelet rich plasma, and the mixture was centrifuged for 10 minutes at 3000 rpm. The suspension was again centrifuged at 3000 rpm for 10 minutes. The precipitate was further resuspended in a suspension buffer (2) shown in Table 2 to obtain washed platelets. The number of platelets was counted by an automatic blood cell counter (Sysmex Microcellcounter F-800) and the sample was diluted with the suspension buffer to 4×10^8 cells/ml. The platelets, sample solution and labeled compounds were placed into plastic tubes in amounts (volumes) shown in the following Table 3, incubated for 45 minutes at 25° C., and then the mixture was filtered using a cell harvester (Brandel cell harvester M-24R) by a glass fiber filter (Whatman GF/B). After the filter was sufficiently dried, the scintillation was counted by a scintillation counter (Beckman LS5000TD). IC50 was calculated from (binding)/(control binding) ratio in the presence of an antagonist. [table 3: the next 10 blocks are its lines as printed, fixed-width]

rat platelet = test: Inhibitory activity of aggregation in rat platelet; format: cell-based; details: rat platelet rich plasma, arachidonic acid (final concentration 0.5 mM) as inducer; read-out: C: Inhibitory activity of aggregation in rat platelet (IC50; μM)
Method: (3) Inhibitory Activity of Aggregation in Rat Platelet The abdomen of etherized rat was open, and blood was taken from the abdominal arteries, using a sodium citrate solution (final concentration was 0.38%). The blood was centrifuged at 1100 rpm for 10 minutes, and the supernatent was separated as the platelet rich plasma. The plasma was further centrifuged at 2000 rpm for 15 minutes to obtain the supernatent as a platelet poor plasma. The platelet rich plasma (280 μl) was placed in a measuring cuvette and preincubated for 1 minute at 37° C. Then, a sample solution (10 μl) was added. After 2 minutes, an arachidonic acid solution (final concentration=0.5 mM) (10 μl) was added as an inducer. The change in light transmission was recorded for 5 minutes.

| SMILES | IC50 [1] [µM] | IC50 (rat platelet) [µM] |
| --- | --- | --- |
| CC(C)CC(NS(=O)(=O)c1ccc(Cl)cc1)C(=O)Nc1ccc(CC(=O)O)cc1 (racemic) [Example 232, (RS)-N-(4-(carboxymethyl)phenyl)-2-(4-chlorobenzenesulfonylamino)-4-methylpentanamide] | 0.16 | 1.7 |
| O=C(O)CCc1ccc(NC(=O)C(CCc2ccccc2)NS(=O)(=O)c2ccc(Cl)cc2)cc1 (racemic) [Example 174, (RS)-N-(4-(2-carboxyethyl)phenyl)-2-(4-chlorobenzenesulfonylamino)-4-phenylbutanamide] | 0.17 | 5.3 |
| O=C(O)Cc1ccc(NC(=O)C(Cn2ccnc2)NS(=O)(=O)c2ccc(Cl)cc2)cc1 (racemic) [Example 94, (RS)-N-(4-(carboxymethyl)phenyl)-2-(4-chlorobenzenesulfonylamino)-3-(1H-imidazol-1-yl)propanamide hydrochloride] | 0.86 | 1.7 |
| O=C(O)Cc1ccc(NC(=O)C(COc2ccccc2Cl)NS(=O)(=O)c2ccc(Cl)cc2)cc1 (racemic) [Example 132, (RS)-N-(4-(carboxymethyl)phenyl)-2-(4-chlorobenzenesulfonylamino)-3-(2-chlorophenoxy)propanamide] | 0.023 | 1.7 |
| O=C(O)CCCCCNC(=O)C(Cn1ccnc1)NS(=O)(=O)c1ccc(Cl)cc1 (racemic) [Example 100, (RS)-N-(5-carboxypentyl)-2-(4-chlorobenzenesulfonylamino)-3-(1H-imidazol-1-yl)propanamide hydrochloride] | – | 1.7 |
| CCCC[C@H](NS(=O)(=O)c1ccc(Br)cc1)C(=O)Nc1ccc(CC(=O)O)cc1 [Example 227, (S)-2-(4-bromobenzenesulfonylamino)-N-(4-(carboxymethyl)phenyl)hexanamide] | 0.045 | – |
| CCSCC[C@H](NS(=O)(=O)c1ccc(Br)cc1)C(=O)Nc1ccc(CCC(=O)O)cc1 [Example 246, (S)-2-(4-bromobenzenesulfonylamino)-N-(4-(2-carboxyethyl)phenyl)-4-ethylthio-butanamide] | 0.034 | – |
| CCCC[C@H](NS(=O)(=O)c1ccc(Br)cc1)C(=O)Nc1ccc(CCC(=O)O)cc1 [Example 228, (S)-2-(4-bromobenzenesulfonylamino)-N-(4-(2-carboxyethyl)phenyl)hexanamide] | 0.057 | – |
| CSCCC(NS(=O)(=O)c1ccc(Cl)cc1)C(=O)Nc1ccc(CCC(=O)O)cc1 (racemic) [Example 236, (RS)-N-(4-(2-carboxyethyl)phenyl)-2-(4-chlorobenzenesulfonylamino)-4-methylthiobutanamide] | 0.42 | – |
| O=C(O)Cc1ccc(NC(=O)[C@@H](Cc2ccccc2)NS(=O)(=O)c2ccc(Br)cc2)cc1 [Example 253, (R)-2-(4-bromobenzenesulfonylamino)-N-(4-(carboxymethyl)phenyl)-3-phenylpropanamide] | 1.3 | – |
| O=C(O)CCc1ccc(NC(=O)C(CC2CCCCC2)NS(=O)(=O)c2ccc(Cl)cc2)cc1 (racemic) [Example 261, (RS)-N-(4-(2-carboxyethyl)phenyl)-2-(4-chlorobenzenesulfonylamino)-3-cyclohexylpropanamide] | – | 2.3 |
| O=C(O)CCCCNC(=O)C(COc1cccnc1)NS(=O)(=O)c1ccc(Cl)cc1 (racemic) [Example 119, (RS)-N-(4-carboxybutyl)-2-(4-chlorobenzenesulfonylamino)-3-(pyridin-3-yloxy)propanamide hydrochloride] | – | 1.7 |
| O=C(O)CCCCNC(=O)C(COC1CCCCO1)NS(=O)(=O)c1ccc(Cl)cc1 (racemic) [Example 48, (RS)-N-(4-carboxybutyl)-2-(4-chlorobenzenesulfonylamino)-3-(tetrahydropyran-2-yloxy)propanamide] | – | 1.7 |
| CC(C)C(NS(=O)(=O)c1ccc(Cl)cc1)C(=O)Nc1ccc(CC(=O)O)cc1 (racemic) [Example 231, (RS)-N-(4-(carboxymethyl)phenyl)-2-(4-chlorobenzenesulfonylamino)-3-methylbutanamide] | – | 1.7 |

Continued, values first:

| IC50 [1] [µM] | IC50 (rat platelet) [µM] | SMILES |
| --- | --- | --- |
| 0.18 | 1.7 | O=C(O)Cc1ccc(NC(=O)C(Cn2ccnc2)NS(=O)(=O)c2ccc(Br)cc2)cc1 (racemic) [Example 104, (RS)-2-(4-bromobenzenesulfonylamino)-N-(4-(carboxymethyl)phenyl)-3-(1H-imidazol-1-yl)propanamide] |
| 0.41 | 1.7 | O=C(O)CCCCCCNC(=O)C(Cn1ccnc1)NS(=O)(=O)c1ccc(Cl)cc1 (racemic) [Example 101, (RS)-N-(6-carboxyhexyl)-2-(4-chlorobenzenesulfonylamino)-3-(1H-imidazol-1-yl)propanamide hydrochloride] |
| 0.5 | 0.95 | O=C(O)Cc1ccc(NC(=O)C(COc2cccnc2)NS(=O)(=O)c2ccc(Cl)cc2)cc1 (racemic) [Example 116, (RS)-N-(4-(carboxymethyl)phenyl)-2-(4-chlorobenzenesulfonylamino)-3-(pyridin-3-yloxy)propanamide hydrochloride] |
| 0.024 | 0.18 | O=C(O)CCc1ccc(NC(=O)C(Cc2ccccc2)NS(=O)(=O)c2ccc(Cl)cc2)cc1 (racemic) [Example 249, (RS)-N-(4-(2-carboxyethyl)phenyl)-2-(4-chlorobenzenesulfonylamino)-3-phenylpropanamide] |
| – | 0.055 | CCSCC[C@H](NS(=O)(=O)c1ccc(Br)cc1)C(=O)Nc1ccc(CC(=O)O)cc1 [Example 245, (S)-2-(4-bromobenzenesulfonylamino)-N-(4-(carboxymethyl)phenyl)-4-ethylthiobutanamide] |
| – | 0.55 | CCCCCCC(NS(=O)(=O)c1ccc(Cl)cc1)C(=O)Nc1ccc(CC(=O)O)cc1 (racemic) [Example 230, (RS)-N-(4-(carboxymethyl)phenyl)-2-(4-chlorobenzenesulfonylamino)octanamide] |
| – | 1.5 | O=C(O)CCCNC(=O)C(COC1CCCCO1)NS(=O)(=O)c1ccc(Cl)cc1 (racemic) [Example 47, (RS)-N-(3-carboxypropyl)-2-(4-chlorobenzenesulfonylamino)-3-(tetrahydropyran-2-yloxy)propanamide] |
| – | 0.53 | CCC(NS(=O)(=O)c1ccc(Cl)cc1)C(=O)Nc1ccc(CC(=O)O)cc1 (racemic) [Example 220, (RS)-N-(4-(carboxymethyl)phenyl)-2-(4-chlorobenzenesulfonylamino) butanamide] |
| – | 0.53 | CCCC(NS(=O)(=O)c1ccc(Cl)cc1)C(=O)Nc1ccc(CC(=O)O)cc1 (racemic) [Example 221, (RS)-N-(4-(carboxymethyl)phenyl)-2-(4-chlorobenzenesulfonylamino)pentanamide] |
| – | 0.56 | CCCC[C@H](NS(=O)(=O)c1ccc(Cl)cc1)C(=O)Nc1ccc(CCC(=O)O)cc1 [Example 225, (S)-N-(4-(2-carboxyethyl)phenyl)-2-(4-chlorobenzenesulfonylamino)hexanamide] |
| – | 0.17 | O=C(O)c1ccc(NC(=O)[C@H](Cc2ccccc2)NS(=O)(=O)c2ccc(Br)cc2)cc1 [Example 256, (S)-2-(4-bromobenzenesulfonylamino)-N-(4-carboxyphenyl)-3-phenylpropanamide] |
| – | 0.17 | CCSCC[C@H](NS(=O)(=O)c1ccc(Cl)cc1)C(=O)Nc1ccc(CC(=O)O)cc1 [Example 243, (S)-N-(4-(carboxymethyl)phenyl)-2-(4-chlorobenzenesulfonylamino)-4-ethylthiobutanamide] |
| – | 0.53 | O=C(O)Cc1ccc(NC(=O)[C@H](Cc2c[nH]c3ccccc23)NS(=O)(=O)c2ccc(Cl)cc2)cc1 [Example 258, (S)-N-(4-(carboxymethyl)phenyl)-2-(4-chlorobenzenesulfonylamino)-3-(3-indolyl) propanamide] |
| – | 0.17 | CCCCC(NS(=O)(=O)c1ccc(Cl)cc1)C(=O)Nc1ccc(CC(=O)O)cc1 (racemic) [Example 222, (RS)-N-(4-(carboxymethyl)phenyl)-2-(4-chlorobenzenesulfonylamino)hexanamide] |
